Source: patent US12187723B2 (BRISTOL-MYERS SQUIBB COMPANY, priority 2019, dated 2025)

Experiments:
[1] = target: T1, human TLR7 (Homo sapiens, UniProt Q9NYK1); experiment: TLR7 inhibition reporter assay (HEK-Blue SEAP); assay type: cell-based; conditions: HEK-Blue cells overexpressing human TLR7, gardiquimod 7.5 μM, 22 hour incubation
T1 construct: host or cells: HEK-Blue cells
T1 sequence (Q9NYK1 27-1049): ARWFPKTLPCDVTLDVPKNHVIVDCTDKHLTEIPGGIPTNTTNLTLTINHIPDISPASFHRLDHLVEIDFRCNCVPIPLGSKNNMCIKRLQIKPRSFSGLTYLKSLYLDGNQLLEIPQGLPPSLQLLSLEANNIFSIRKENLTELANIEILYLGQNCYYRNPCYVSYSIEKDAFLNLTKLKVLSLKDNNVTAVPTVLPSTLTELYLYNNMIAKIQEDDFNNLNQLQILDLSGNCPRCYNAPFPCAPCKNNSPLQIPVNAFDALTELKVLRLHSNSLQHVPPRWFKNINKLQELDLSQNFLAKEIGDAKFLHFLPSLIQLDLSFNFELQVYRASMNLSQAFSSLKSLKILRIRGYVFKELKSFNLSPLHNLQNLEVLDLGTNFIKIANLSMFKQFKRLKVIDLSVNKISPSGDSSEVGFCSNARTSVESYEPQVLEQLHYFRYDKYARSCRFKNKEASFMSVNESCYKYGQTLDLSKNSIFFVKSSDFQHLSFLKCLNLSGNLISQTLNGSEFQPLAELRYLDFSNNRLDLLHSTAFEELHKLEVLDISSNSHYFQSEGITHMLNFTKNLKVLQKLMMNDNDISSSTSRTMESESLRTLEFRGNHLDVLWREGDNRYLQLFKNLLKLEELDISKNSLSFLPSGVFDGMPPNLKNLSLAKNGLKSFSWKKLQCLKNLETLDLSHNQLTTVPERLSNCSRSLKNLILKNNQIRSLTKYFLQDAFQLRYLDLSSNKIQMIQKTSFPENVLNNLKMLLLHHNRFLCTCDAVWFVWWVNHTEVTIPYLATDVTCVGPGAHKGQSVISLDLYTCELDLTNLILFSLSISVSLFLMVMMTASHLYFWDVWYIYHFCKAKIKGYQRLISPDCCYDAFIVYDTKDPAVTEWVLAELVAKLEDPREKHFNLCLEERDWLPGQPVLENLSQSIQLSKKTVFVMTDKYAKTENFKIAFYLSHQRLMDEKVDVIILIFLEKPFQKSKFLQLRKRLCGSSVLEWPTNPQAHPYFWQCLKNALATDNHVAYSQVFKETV
Outline: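 SEAP readout via HEK-Blue Detection medium after 22 h at 37 °C, 5% CO2 defines inhibition, normalized between agonist-plus-DMSO wells and a reference inhibitor. Compound dose range 0.05 nM–50 μM; TLR7 cells at 15,000/well (gardiquimod), TLR8 at 20,000/well (R848).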

[2] = target: T2, human TLR9 (Homo sapiens, UniProt Q9NR96); experiment: TLR9 inhibition reporter assay (HEK-Blue SEAP); assay type: cell-based; conditions: HEK-Blue cells overexpressing human TLR9, ODN2006 5 nM, 22 hour incubation
T2 construct: host or cells: HEK-Blue cells
T2 sequence (Q9NR96 26-1032): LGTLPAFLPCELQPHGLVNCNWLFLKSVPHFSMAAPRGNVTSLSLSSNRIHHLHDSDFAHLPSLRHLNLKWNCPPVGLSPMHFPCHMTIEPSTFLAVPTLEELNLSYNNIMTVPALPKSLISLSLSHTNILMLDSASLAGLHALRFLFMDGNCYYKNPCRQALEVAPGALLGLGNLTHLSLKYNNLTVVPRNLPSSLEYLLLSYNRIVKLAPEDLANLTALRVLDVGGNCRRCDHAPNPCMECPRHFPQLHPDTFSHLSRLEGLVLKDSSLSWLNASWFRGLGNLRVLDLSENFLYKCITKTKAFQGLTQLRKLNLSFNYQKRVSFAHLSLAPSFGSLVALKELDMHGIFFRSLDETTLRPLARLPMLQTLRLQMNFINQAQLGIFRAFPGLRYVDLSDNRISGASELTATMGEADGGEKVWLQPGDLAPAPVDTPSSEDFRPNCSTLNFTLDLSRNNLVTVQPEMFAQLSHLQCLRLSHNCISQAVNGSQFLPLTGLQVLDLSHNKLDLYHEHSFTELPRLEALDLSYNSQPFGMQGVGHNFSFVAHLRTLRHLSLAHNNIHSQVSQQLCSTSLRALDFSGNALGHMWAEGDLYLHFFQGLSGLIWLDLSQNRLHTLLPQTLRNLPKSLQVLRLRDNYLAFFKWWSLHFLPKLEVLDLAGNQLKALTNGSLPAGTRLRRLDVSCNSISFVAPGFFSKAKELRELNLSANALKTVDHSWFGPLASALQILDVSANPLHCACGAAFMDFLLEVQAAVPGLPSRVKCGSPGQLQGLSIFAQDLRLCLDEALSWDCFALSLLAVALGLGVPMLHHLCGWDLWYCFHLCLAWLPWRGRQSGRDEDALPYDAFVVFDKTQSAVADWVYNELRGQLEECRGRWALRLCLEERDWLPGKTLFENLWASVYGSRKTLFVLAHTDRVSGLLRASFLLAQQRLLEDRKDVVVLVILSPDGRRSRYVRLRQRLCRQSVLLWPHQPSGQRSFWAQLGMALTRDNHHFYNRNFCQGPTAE
Outline: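 HEK-Blue cells overexpressing human TLR7, TLR8 or TLR9 carry a SEAP reporter driven by NF-κB/AP-1 sites. Compounds (0.05 nM–50 μM) were preincubated 30 min at room temperature, then cells were stimulated with gardiquimod 7.5 μM (TLR7), R848 15.9 μM (TLR8) or ODN2006 5 nM (TLR9) for 22 h at 37 °C.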

| SMILES | IC50 [1] | IC50 [2] |
| --- | --- | --- |
| COc1cc(-c2cc3[nH]c(=O)n([C@H]4CC[C@@H](N(C)C)CC4)c3cc2C)cn2ncnc12 [Example 48, 1-((1s,4s)-4-(dimethylamino)cyclohexyl)-5-(8-methoxy-[1,2,4]triazolo[1,5-a]pyridin-6-yl)-6-methyl-1,3-dihydro-2H-benzo[d]imidazol-2-one] | 14.8 nM | 3770 nM |
| COc1cc(-c2cc3[nH]c(=O)n([C@H]4CC[C@@H](NC5CCOCC5)CC4)c3cc2C)cn2ncnc12 [Example 49, 5-(8-methoxy-[1,2,4]triazolo[1,5-a]pyridin-6-yl)-6-methyl-1-((1s,4s)-4-((tetrahydro-2H-pyran-4-yl)amino)cyclohexyl)-1,3-dihydro-2H-benzo[d]imidazol-2-one] | 18.2 nM | 7430 nM |
| COc1cc(-c2cc3[nH]c(=O)n([C@H]4CC[C@@H](NC(C)C)CC4)c3cc2C)cn2ncnc12 [Example 50, 1-((1s,4s)-4-(isopropylamino)cyclohexyl)-5-(8-methoxy-[1,2,4]triazolo[1,5-a]pyridin-6-yl)-6-methyl-1,3-dihydro-2H-benzo[d]imidazol-2-one] | 38.5 nM | 10900 nM |
| COc1cc(-c2cc3[nH]c(=O)n([C@@H]4CCCN(C)C4)c3cc2C)cn2ncnc12 [Example 51, (R)-5-(8-methoxy-[1,2,4]triazolo[1,5-a]pyridin-6-yl)-6-methyl-1-(1-methylpiperidin-3-yl)-1,3-dihydro-2H-benzo[d]imidazol-2-one] | 32.5 nM | 8390 nM |
| CCN1CCC[C@@H](n2c(=O)[nH]c3cc(-c4cc(OC)c5ncnn5c4)c(C)cc32)C1 [Example 52, (R)-1-(1-ethylpiperidin-3-yl)-5-(8-methoxy-[1,2,4]triazolo[1,5-a]pyridin-6-yl)-6-methyl-1,3-dihydro-2H-benzo[d]imidazol-2-one] | 65.3 nM | 2960 nM |
| COc1cc(-c2cc3[nH]c(=O)n([C@@H]4CCCN(C(C)C)C4)c3cc2C)cn2ncnc12 [Example 53, (R)-1-(1-isopropylpiperidin-3-yl)-5-(8-methoxy-[1,2,4]triazolo[1,5-a]pyridin-6-yl)-6-methyl-1,3-dihydro-2H-benzo[d]imidazol-2-one] | 33 nM | 3750 nM |
| CCCN1CCC[C@@H](n2c(=O)[nH]c3cc(-c4cc(OC)c5ncnn5c4)c(C)cc32)C1 [Example 54, (R)-5-(8-methoxy-[1,2,4]triazolo[1,5-a]pyridin-6-yl)-6-methyl-1-(1-propylpiperidin-3-yl)-1,3-dihydro-2H-benzo[d]imidazol-2-one] | 29.2 nM | 4230 nM |

More lines, now with the values ahead:

| IC50 [1] | IC50 [2] | SMILES |
| --- | --- | --- |
| 23.1 nM | 5550 nM | COc1cc(-c2cc3[nH]c(=O)n([C@@H]4CCCN(CC5CC5)C4)c3cc2C)cn2ncnc12 [Example 55, (R)-1-(1-(cyclopropylmethyl)piperidin-3-yl)-5-(8-methoxy-[1,2,4]triazolo[1,5-a]pyridin-6-yl)-6-methyl-1,3-dihydro-2H-benzo[d]imidazol-2-one] |
| 5.32 nM | 4810 nM | COc1cc(-c2cc3[nH]c(=O)n([C@@H]4CCCN(CC(C)C)C4)c3cc2C)cn2ncnc12 [Example 56, (R)-1-(1-isobutylpiperidin-3-yl)-5-(8-methoxy-[1,2,4]triazolo[1,5-a]pyridin-6-yl)-6-methyl-1,3-dihydro-2H-benzo[d]imidazol-2-one] |
| 8.11 nM | 5940 nM | COc1cc(-c2cc3[nH]c(=O)n([C@@H]4CCCN(CC5CCOCC5)C4)c3cc2C)cn2ncnc12 [Example 57, (R)-5-(8-methoxy-[1,2,4]triazolo[1,5-a]pyridin-6-yl)-6-methyl-1-(1-((tetrahydro-2H-pyran-4-yl)methyl)piperidin-3-yl)-1,3-dihydro-2H-benzo[d]imidazol-2-one] |
| 16.2 nM | 4120 nM | COc1cc(-c2cc3[nH]c(=O)n([C@H]4CC[C@@H](NC5CCC5)CC4)c3cc2C)cn2ncnc12 [Example 58, 1-((1s,4s)-4-(cyclobutylamino)cyclohexyl)-5-(8-methoxy-[1,2,4]triazolo[1,5-a]pyridin-6-yl)-6-methyl-1,3-dihydro-2H-benzo[d]imidazol-2-one] |
